Results published in patent US11980633B2, “Method for treating cancer using a combination of DNA-damaging agents and DNA-PK inhibitors” (Vertex Pharmaceuticals Incorporated, priority 2016, dated 2024).

What was measured:
Format in all cases: cell-based
[1] = test system: primary human tumors (NSCLC, esophageal, gastric); test: TCA: Compound B-1 with cisplatin, primary tumors; design: Average Bliss score: scale not given here
Procedure: (§1) In both studies, cell viability was assessed after 6 days in culture. Statistical analysis of the combination matrix was performed to assess whether synergy, additivity, or antagonism of the combination treatments were observed.
(§2) Materials: Primary patient samples (See Tables 16 and 17, below) were excised from mice when they reached 500 mg to 1000 mg in size and processed immediately, or after overnight shipment. Tumors were serially passaged by subcutaneous implantation of 50 mg to 150 mg fragments into the flanks of immunocompromised (nude) mice. Tumors were used within the first 5 or 7 passages.
(§3) Tumor Chemosensitivity Assay (TCA): Primary tumor samples were grown and serially passaged in immunocompromised mice. Tumors were mechanically dissociated into small fragments (1 mm to 2 mm) with scalpels in phosphate buffered saline (PBS or RPMI) and centrifuged at 200×g for 5 minutes at room temperature in 50 mL centrifuge tubes. Samples were resuspended in 10 mL of cell dissociation reagent and enzymatically digested with mechanical agitation for 1 to 3 hours at 37° C., 5% CO2 to a single cell suspension. Ten mL of complete RPMI-1640 media was added to the cell mixture and pipetted up and down 4 to 5 times. The mixture was then passed through a 70 μm or 100 μm mesh strainer to remove undigested tumor. The filtrate was then centrifuged 200×g for 5 minutes at room temperature and resuspended in 20 mL complete RPMI-1640. This cell suspension was slowly layered onto 20 mL of room temperature Histopaque and centrifuged at 400×g for 15 minutes at room temperature without a brake. The interface was transferred to a new 50 mL centrifuge tube and 15 mL of complete RPMI-1640 was added. This suspension was centrifuged at 200×g at room temperature, and the resulting pellet was resuspended in 10 mL of complete PC-1 media, except for pancreatic tumors in which case Pancreatic Medium was used. Cells were diluted in Trypan blue, and viable cells that excluded the dye were counted. Only the larger, tumor cells were included in the cell count. Cells were diluted in complete PC-1 or Pancreatic media, as appropriate for the cells, and were plated at 15,000 to 20,000 cells per well in 100-135 μL in ultra-low attachment U-bottom plates.
(§4) Compound Addition: For these studies, a 10 mM stock of the DNA-PK inhibitor (Compound B-1 or Compound B-2) was made in DMSO and used to add to cells from most tumors with HP D300 Digital Dispenser (Tecan US, Morrisville, NC, USA), or diluted into the appropriate media (PC-1 or pancreatic media) as a 5-10× stock and added to cells (OVX001 and ENX001, 005). PC-1, pancreatic media, and chemotherapeutics were also added so that final well volume was 150 μL. Doxorubicin was made as DMSO stock of 1 or 10 mM and added to cells for most tumors with HP D300 Digital Dispenser, or diluted into PC-1 as 5-10× stock and added to cells (OVX001 and ENX001, 005). Cisplatin (cis-diammine platinum(II), dichloride) was prepared fresh to 10 mM in warm (60° C.) distilled water and diluted in PC-1 as a 5-10× stock. […] Different starting concentrations, dose ranges, and number of doses were used for each experiment based on the response data available at the time.
(§5) For bleomycin experiments, combinations with Compound B-1 at all concentrations were run in triplicate. A 6×3 matrix was designed on one plate, consisting of a 2-point concentration range of 0.73 μM and 2.2 μM Compound B-1 plus no treatment control, in 3 columns each of 6 wells. Bleomycin (plus ‘no treatment’ control) was added to 9 wells in rows of this plate. Similar 6×3 matrices were set up for additional agents with different starting concentrations for compound dilutions. For cisplatin experiments the starting concentration was 30 μM which was diluted 1:3. […] For doxorubicin hydrochloride experiments the starting concentration was 5 μM doxorubicin which was diluted 1:3. For gemcitabine experiments the starting concentration was 5 μM gemcitabine which was diluted 1:3. […]

[2] = test system: primary human tumors (esophageal, gastric); test: TCA: Compound B-1 with paclitaxel, primary tumors
Procedure: as §1, §2, §3, §4, §5

[3] = test system: primary human tumors (NSCLC, SCLC, pancreatic, HCC, gastric, esophageal); test: TCA assays overall: all combination treatments with Compound B-1
Procedure: as §1, §2
as §3, with “Cells were diluted in complete PC-1 or Pancreatic media, as appropriate for the cells, and were plated at 15,000 to 20,000 cells per well in 100-135 μL in ultra-low attachment U-bottom plates.” left out

[4] = test system: primary human hepatocellular carcinoma (HCC) tumor; test: TCA: Compound B-1 with doxorubicin hydrochloride, primary HCC tumor; conditions: tumor L090923, Liver
Procedure: as §1, §2
Tumor Chemosensitivity Assay (TCA): Primary tumor samples were grown and serially passaged in immunocompromised mice. Tumors were mechanically dissociated into small fragments (1 mm to 2 mm) with scalpels in phosphate buffered saline (PBS or RPMI) and centrifuged at 200×g for 5 minutes at room temperature in 50 mL centrifuge tubes. Samples were resuspended in 10 mL of cell dissociation reagent and enzymatically digested with mechanical agitation for 1 to 3 hours at 37° C., 5% CO2 to a single cell suspension. Ten mL of complete RPMI-1640 media was added to the cell mixture and pipetted up and down 4 to 5 times. The mixture was then passed through a 70 μm or 100 μm mesh strainer to remove undigested tumor. […] Cells were diluted in Trypan blue, and viable cells that excluded the dye were counted. […]

SMILES: CNC(=O)c1ccnc2c([C@H](C)CNc3cc(-c4cnc(C)nc4)ncn3)cccc12 [Compound B-1]
- tumors that showed additivity or synergy ([1]; nine of 10 tumors): 90%
- tumors that demonstrated antagonism ([1]; one of 10 tumors): 10%
- Average Bliss score ([1]; tumor ESX005, Esophageal): 2
- Synergy/Additivity/Antagonism ([1]; tumor ESX005, Esophageal): Additive (Values between 5 and −5 are considered additive)
- Average Bliss score ([1]; tumor ESX008, Esophageal): 1
- Synergy/Additivity/Antagonism ([1]; tumor ESX008, Esophageal): Additive (Values between 5 and −5 are considered additive)
- Average Bliss score ([1]; tumor GAX001, Gastric): 14
- Synergy/Additivity/Antagonism ([1]; tumor GAX001, Gastric): Strongly Synergistic (greater than 10 are considered strongly synergistic)
- Average Bliss score ([1]; tumor GAX007, Gastric): 2
- Synergy/Additivity/Antagonism ([1]; tumor GAX007, Gastric): Additive (Values between 5 and −5 are considered additive)
- Average Bliss score ([1]; tumor GAX027, Gastric): −3
- Synergy/Additivity/Antagonism ([1]; tumor GAX027, Gastric): Additive (Values between 5 and −5 are considered additive)
- Average Bliss score ([1]; tumor OD33117, Lung (NSCLC)): 6
- Synergy/Additivity/Antagonism ([1]; tumor OD33117, Lung (NSCLC)): Synergistic (greater than 5 are considered synergistic)
- Average Bliss score ([1]; tumor OD33966, Lung (NSCLC)): −1
- Synergy/Additivity/Antagonism ([1]; tumor OD33966, Lung (NSCLC)): Additive (Values between 5 and −5 are considered additive)
- Average Bliss score ([1]; tumor OD36088, Lung (NSCLC)): 6
- Synergy/Additivity/Antagonism ([1]; tumor OD36088, Lung (NSCLC)): Synergistic (greater than 5 are considered synergistic)
- Average Bliss score ([1]; tumor TS110310, Lung (NSCLC)): −3
- Synergy/Additivity/Antagonism ([1]; tumor TS110310, Lung (NSCLC)): Additive (Values between 5 and −5 are considered additive)
- Average Bliss score ([1]; tumor YAS111611, Lung (NSCLC)): −6
- Synergy/Additivity/Antagonism ([1]; tumor YAS111611, Lung (NSCLC)): Antagonistic (less than −5 are considered antagonistic)
- tumors that showed additivity ([2]; four of 5 tumors): 80%
- tumors that showed antagonism ([2]; one of 5 tumors): 20%
- Average Bliss score ([2]; tumor ESX005, Esophageal): −3
- Synergy/Additivity/Antagonism ([2]; tumor ESX005, Esophageal): Additive (Values between 5 and −5 are considered additive)
- Average Bliss score ([2]; tumor ESX008, Esophageal): −5
- Synergy/Additivity/Antagonism ([2]; tumor ESX008, Esophageal): Antagonistic (less than −5 are considered antagonistic)
- Average Bliss score ([2]; tumor GAX001, Gastric): −1
- Synergy/Additivity/Antagonism ([2]; tumor GAX001, Gastric): Additive (Values between 5 and −5 are considered additive)
- Average Bliss score ([2]; tumor GAX007, Gastric): −4
- Synergy/Additivity/Antagonism ([2]; tumor GAX007, Gastric): Additive (Values between 5 and −5 are considered additive)
- Average Bliss score ([2]; tumor GAX027, Gastric): 1
- Synergy/Additivity/Antagonism ([2]; tumor GAX027, Gastric): Additive (Values between 5 and −5 are considered additive)
- tumors that showed antagonism ([3]; all TCA combinations with Compound B-1 (4/63)): 6%
- combination treatments that showed additive effects ([3]; all TCA combinations with Compound B-1 (29/63)): 46%
- combination treatments that demonstrated synergy or strong synergy ([3]; all TCA combinations with Compound B-1 (29/68 as printed)): 46%
- Average Bliss score [4]: 4
